Laboratory results published in ChEMBL document CHEMBL3994585, “Synthesis of α-santonin derivatives for diminutive effect on T and B-cell proliferation and their structure activity relationships” (Eur J Med Chem, 2017).

Legend:
[1] = test system: T-cell; assay: Cytotoxicity against Balb/c mouse T cells assessed as reduction in cell proliferation at 10 uM after 48 hrs by MTT assay; format: cell-based
[2] = test system: T-cell; assay: Immunostimulant activity in Balb/c mouse T cells assessed as ConA-induced cell proliferation at 100 uM after 48 hrs by MTT assay relative to control; format: ADME, cell-based
[3] = test system: B-cell; assay: Cytotoxicity against Balb/c mouse B cells assessed as reduction in cell proliferation at 10 uM after 48 hrs by MTT assay; format: cell-based
[4] = test system: B-cell; assay: Immunosuppressive activity in Balb/c mouse B cells assessed as LPS-induced cell proliferation at 10 uM after 48 hrs by MTT assay relative to control; format: functional
[5] = test system: T-cell; assay: Cytotoxicity against Balb/c mouse T cells assessed as reduction in cell proliferation at 1 uM after 48 hrs by MTT assay; format: cell-based
[6] = test system: B-cell; assay: Immunostimulant activity in Balb/c mouse B cells assessed as LPS-induced cell proliferation at 1 uM after 48 hrs by MTT assay relative to control; format: ADME, cell-based
[7] = test system: T-cell; assay: Immunostimulant activity in Balb/c mouse T cells assessed as ConA-induced cell proliferation at 1 uM after 48 hrs by MTT assay relative to control; format: ADME, cell-based
[8] = test system: B-cell; assay: Immunostimulant activity in Balb/c mouse B cells assessed as LPS-induced cell proliferation at 100 uM after 48 hrs by MTT assay relative to control; format: ADME, cell-based
[9] = test system: B-cell; assay: Cytotoxicity against Balb/c mouse B cells assessed as reduction in cell proliferation at 100 uM after 48 hrs by MTT assay; format: cell-based
[10] = test system: T-cell; assay: Cytotoxicity against Balb/c mouse T cells assessed as reduction in cell proliferation at 100 uM after 48 hrs by MTT assay; format: cell-based
[11] = test system: B-cell; assay: Cytotoxicity against Balb/c mouse B cells assessed as reduction in cell proliferation at 1 uM after 48 hrs by MTT assay; format: cell-based
[12] = test system: T-cell; assay: Immunostimulant activity in Balb/c mouse T cells assessed as ConA-induced cell proliferation at 10 uM after 48 hrs by MTT assay relative to control; format: ADME, cell-based
[13] = test system: B-cell; assay: Immunostimulant activity in Balb/c mouse B cells assessed as LPS-induced cell proliferation at 10 uM after 48 hrs by MTT assay relative to control; format: ADME, cell-based
[14] = test system: B-cell; assay: Immunosuppressive activity in Balb/c mouse B cells assessed as LPS-induced cell proliferation at 100 uM after 48 hrs by MTT assay relative to control; format: functional
[15] = test system: B-cell; assay: Immunosuppressive activity in Balb/c mouse B cells assessed as LPS-induced cell proliferation at 1 uM after 48 hrs by MTT assay relative to control; format: functional
[16] = test system: T-cell; assay: Immunosuppressive activity in Balb/c mouse T cells assessed as ConA-induced cell proliferation at 1 uM after 48 hrs by MTT assay relative to control; format: functional
[17] = test system: T-cell; assay: Immunosuppressive activity in Balb/c mouse T cells assessed as ConA-induced cell proliferation at 100 uM after 48 hrs by MTT assay relative to control; format: functional
[18] = test system: T-cell; assay: Immunosuppressive activity in Balb/c mouse T cells assessed as ConA-induced cell proliferation at 10 uM after 48 hrs by MTT assay relative to control; format: functional
[19] = target: Tumor necrosis factor (Homo sapiens) (UniProt P01375); assay: Inhibition of TNFalpha (unknown origin) at 1 uM relative to control
Chain of Tumor necrosis factor (Homo sapiens) (P01375 whole entry): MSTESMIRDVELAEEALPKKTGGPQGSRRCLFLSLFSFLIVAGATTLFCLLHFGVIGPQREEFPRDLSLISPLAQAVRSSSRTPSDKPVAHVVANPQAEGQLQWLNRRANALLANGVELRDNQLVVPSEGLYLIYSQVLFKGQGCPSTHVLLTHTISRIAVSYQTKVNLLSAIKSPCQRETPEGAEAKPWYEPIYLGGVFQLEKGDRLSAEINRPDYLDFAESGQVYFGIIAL

[20] = target: Tumor necrosis factor (Homo sapiens) (UniProt P01375); assay: Inhibition of TNFalpha (unknown origin) at 10 uM relative to control
[21] = target: Tumor necrosis factor (Homo sapiens) (UniProt P01375); assay: Inhibition of TNFalpha (unknown origin) at 5 uM relative to control
[22] = test system: T-cell; assay: Effect on ConA-induced Balb/c mouse T cell proliferation at 10 uM after 48 hrs by MTT assay relative to control; format: functional
[23] = target: Tumor necrosis factor (Homo sapiens) (UniProt P01375); assay: Inhibition of TNFalpha (unknown origin) at 10 uM relative to dexamethasone

Cc1cc(O)c(C)c2c1CC[C@@H]([C@@H](C)C(=O)O)C2
Activity [1]: Toxic
Activity [2]: 1.03%
Activity [3]: Toxic
Activity [4]: -1.76%
Activity [5]: Toxic
Activity [6]: 15.92%
Activity [7]: 4.12%
Activity [8]: 20.35%
Activity [9]: Toxic
Activity [10]: Toxic
Activity [11]: Toxic
Activity [12]: 3.09%

CC1=C(Cl)C=C[C@]2(C)CC[C@@H]3C(=C12)OC(=O)[C@H]3C
Activity [1]: Toxic
Activity [2]: 9.27%
Activity [3]: Toxic
Activity [13]: 7.96%
Activity [5]: Toxic
Activity [14]: -4.42%
Activity [15]: -8.84%
Activity [9]: Toxic
Activity [10]: Toxic
Activity [16]: -5.15%
Activity [11]: Toxic
Activity [12]: 16.49%

Cc1cc(OCc2cnnn2/C=C/c2ccccc2)c(C)c2c1CC[C@H]1[C@H](C)C(=O)O[C@@H]21
Activity [17]: -95.12%
Activity [4]: -7.69%
Activity [6]: 36.75%
Activity [18]: -95.12%
Activity [8]: 48.71%
Activity [16]: -95.12%

CCOC(=O)[C@H](C)c1ccc2c(C)cc(O)c(C=O)c2c1
Activity [1]: Toxic
Activity [2]: 24.74%
Activity [3]: Toxic
Activity [4]: -5.3%
Activity [5]: Toxic
Activity [6]: 14.15%
Activity [14]: -2.65%
Activity [7]: 34.02%
Activity [9]: Toxic
Activity [10]: Toxic
Activity [11]: Toxic
Activity [12]: 49.48%

CC(=O)OC1=C(C)C2=C3OC(=O)C(C)=C3CC[C@@]2(C)CC1
Activity [1]: Toxic
Activity [17]: -34.55%
Activity [3]: Toxic
Activity [4]: -42.3%
Activity [5]: Toxic
inhibition [19]: 3.03%
Activity [14]: -45.6%
Activity [18]: -38.23%
Activity [15]: -42.3%
inhibition [20]: 44.9%
Activity [9]: Toxic
Activity [10]: Toxic
Activity [16]: -30.88%
Activity [11]: Toxic
inhibition [21]: 24.1%

C[C@@H]1C[C@H]2[C@@H]3CCC4=CC(=O)C=C[C@]4(C)[C@@]3(F)[C@@H](O)C[C@]2(C)[C@@]1(O)C(=O)CO
inhibition [19]: 49.9%

CC1=C2[C@H]3OC(=O)[C@@H](C)[C@@H]3CC[C@@]2(C)C=CC1=O [SANTONIN]
Activity [1]: Non-Toxic
Activity [17]: -5.16%
Activity [3]: Non-Toxic
Activity [4]: -24.17%
Activity [5]: Non-Toxic
inhibition [19]: Below limit of detection
Activity [6]: 20.35%
Activity [14]: -33.62%
inhibition [20]: 19%
Activity [9]: Non-Toxic
Activity [10]: Non-Toxic
Activity [16]: -36.02%
Activity [11]: Non-Toxic
inhibition [21]: 6.2%
Activity [12]: 4.48%

Cc1cc(O)c(C)c2c1CC[C@@H]([C@@H](C)C(=O)Nc1ccc(CC#N)cc1)C2
Activity [1]: Toxic
Activity [17]: -7.35%
Activity [3]: Toxic
Activity [4]: -39.56%
Activity [5]: Toxic
inhibition [19]: Below limit of detection
Activity [14]: -46.7%
Activity [18]: -30.14%
Activity [15]: -42.3%
inhibition [20]: 17.1%
Activity [9]: Toxic
Activity [10]: Toxic
Activity [16]: -36.02%
Activity [11]: Toxic
inhibition [21]: 4.5%

CC(=O)OCC(C)C1CCc2c(C)cc(OC(C)=O)c(C)c2C1O (configuration not stated)
Activity [1]: Toxic
Activity [2]: 18.55%
Activity [3]: Toxic
Activity [13]: 1.76%
Activity [5]: Toxic
Activity [6]: 2.65%
Activity [7]: 37.11%
Activity [8]: 5.3%
Activity [9]: Non-Toxic
Activity [10]: Non-Toxic
Activity [11]: Toxic
Activity [12]: 17.52%

Cc1cc(O)c(C)c2c1CCC1C2OC(O)C1C (configuration not stated)
Activity [1]: Toxic
Activity [2]: 16.49%
Activity [3]: Toxic
Activity [13]: 9.73%
Activity [5]: Toxic
Activity [6]: 13.27%
Activity [14]: -12.38%
Activity [7]: 31.95%
Activity [9]: Toxic
Activity [10]: Toxic
Activity [11]: Toxic
Activity [12]: 16.49%

COc1cc(C)c2ccc([C@@H](C)C(=O)O)cc2c1C
Activity [1]: Toxic
Activity [2]: 13.07%
Activity [3]: Toxic
Activity [13]: 13.33%
Activity [5]: Toxic
Activity [6]: 86.66%
Activity [18]: -25%
Activity [7]: 9.52%
Activity [8]: 4.76%
Activity [9]: Non-Toxic
Activity [10]: Non-Toxic
Activity [11]: Toxic

Cc1ccc(NC(=O)[C@H](C)[C@@H]2CCc3c(C)cc(O)c(C)c3C2)cc1O
Activity [1]: Non-Toxic
Activity [2]: 9.89%
Activity [3]: Non-Toxic
Activity [13]: 11.44%
Activity [5]: Non-Toxic
Activity [6]: 6.96%
Activity [14]: -29.35%
Activity [7]: 11.53%
Activity [9]: Non-Toxic
Activity [10]: Non-Toxic
Activity [11]: Non-Toxic
Activity [12]: 3.84%

COC(=O)[C@H](C)C1=Cc2c(C)c(OC)cc(C)c2CC1
Activity [1]: Toxic
Activity [2]: 22.68%
Activity [3]: Toxic
Activity [13]: 23%
Activity [5]: Toxic
Activity [15]: -1.76%
Activity [7]: 11.34%
Activity [8]: 14.15%
Activity [9]: Toxic
Activity [10]: Toxic
Activity [11]: Toxic
Activity [22]: 0%

Cc1cc(O)c(C)c2c1CCC(C(C)CO)C2O (configuration not stated)
Activity [1]: Toxic
Activity [2]: 6.45%
Activity [3]: Toxic
Activity [13]: 8.54%
Activity [5]: Toxic
Activity [6]: 14.52%
Activity [14]: -11.96%
Activity [7]: 31.18%
Activity [9]: Toxic
Activity [10]: Toxic
Activity [11]: Toxic
Activity [12]: 26.34%

Cc1cc(O)c(C)c2c1CC[C@@H]([C@@H](C)C(=O)Nc1nccc(C)c1[N+](=O)[O-])C2
Activity [1]: Toxic
Activity [17]: -26.37%
Activity [3]: Toxic
Activity [13]: 64.67%
Activity [5]: Toxic
Activity [6]: 28.35%
Activity [14]: -2.98%
Activity [7]: 24.72%
Activity [9]: Non-Toxic
Activity [10]: Non-Toxic
Activity [11]: Toxic
Activity [12]: 42.85%

CC(=O)Oc1cc(C)c2c(c1C)C1OC(OC(C)=O)C(C)C1CC2 (configuration not stated)
Activity [1]: Toxic
Activity [17]: -43.38%
Activity [3]: Toxic
inhibition [23]: 50%
Activity [4]: -28.02%
Activity [5]: Toxic
inhibition [19]: 0.34%
Activity [14]: -45.05%
Activity [18]: -26.47%
Activity [15]: -50%
inhibition [20]: 26%
Activity [9]: Toxic
Activity [10]: Toxic
Activity [16]: -38.23%
Activity [11]: Toxic
inhibition [21]: 9.9%

CCOC(=O)[C@H](C)C1=Cc2c(C)c(O)cc(C)c2CC1
Activity [1]: Toxic
Activity [2]: 22.68%
Activity [3]: Toxic
Activity [13]: 23%
Activity [5]: Toxic
Activity [15]: -1.76%
Activity [7]: 11.34%
Activity [8]: 14.15%
Activity [9]: Toxic
Activity [10]: Toxic
Activity [11]: Toxic
Activity [22]: 0%

Cc1c(N)c(O)c(C)c2c1CC[C@H]1[C@H](C)C(=O)O[C@@H]21
Activity [1]: Toxic
Activity [2]: 5.91%
Activity [3]: Toxic
Activity [13]: 33.33%
Activity [5]: Toxic
Activity [6]: 17.52%
Activity [14]: -16.66%
Activity [7]: 13.97%
Activity [9]: Toxic
Activity [10]: Toxic
Activity [11]: Toxic
Activity [12]: 36.02%
